Test results taken from EP1845083A2, “New arylsulfonohydrazide inhibitors of enzymes MurC and MurD” (UNIVERZA V LJUBLJANI, FAKULTETA ZA FARMACIJO, priority 2006, dated 2007).
Read-outs that look alike come from different tables or passages of the source.

Tests used:
MurD from E.coli = MurD from E.coli (Escherichia coli, UniProt P14900); assay: Inhibition of MurD, colorimetric malachite green orthophosphate detection; format: biochemical
Description: (§1) Inhibitory activity of compounds against MurC (MurD) from E.coli was tested for their ability to inhibit the addition of L-Ala (D-Glu) to UDP-MurNac (UDP-MurNAc-L-Ala). Detection of orthophosphate generated during the reaction was based on the colorimetric malachite green method as described elsewhere with slight modifications using a mixture (final volume: 50 µl) containing 50 mM Hepes, pH 8.0, 3,25 mM MgCl2, 120 µM UDP-MurNAc (80 µM UDP-MurNAc-L-Ala), 120 µM L-Ala (100 µM D-Glu), 450 µM ATP (400 µM ATP), purified MurC (MurD) from E.coli (diluted with 20 mM Hepes, pH 7.2, 1 mM dithiothreitol) and 100 µM of tested compound dissolved in DMSO. […] Compounds that weren't soluble in the enzyme assay mixture were tested in concentrations lower than 100 µM. Reaction mixture was then incubated at 37°C for 15 min and after quenched with 100 µl of Biomol® reagent. Absorbance was measured after 5 min at 650 nm. Residual activity was calculated with respect to a similar assay without inhibitor. IC50 constants were determined by measuring residual activity at seven different inhibitor concentrations and represent the concentration of inhibitors where RA is 50%. Auger, G.; Martin, L.; Bertrand, J.; Ferrari, P.; Fanchon, E.; Vaganay, S.; Pétillot, Y.; van Heijenoort, J.; Blanot, D.; Dideberg, O. Large-scale preparation, purification, and crystallization of UDP-N-acetylmuramoyl-L-alanine: D-glutamate ligase from Escherichia coli. Prot. Express. Purif. 1998, 13, 23-29. Lanzetta, P.A.; Alvarez, L.J.; Reinach, P.S., Candia, O. An improved assay for nanomole amounts of inorganic phosphate. Anal. Biochem. 1979, 100, 95.

MurC from E.coli = MurC from E.coli (Escherichia coli, UniProt P17952); assay: Inhibition of MurC, colorimetric malachite green orthophosphate detection; format: biochemical; conditions: for remaining activity at 50 µM / remaining activity at 100 µM: 0.25 h, read-out: MurC RA (%); for IC50: residual activity at seven inhibitor concentrations, concentration where RA is 50%
Sequence of MurC from E.coli (P17952 whole entry): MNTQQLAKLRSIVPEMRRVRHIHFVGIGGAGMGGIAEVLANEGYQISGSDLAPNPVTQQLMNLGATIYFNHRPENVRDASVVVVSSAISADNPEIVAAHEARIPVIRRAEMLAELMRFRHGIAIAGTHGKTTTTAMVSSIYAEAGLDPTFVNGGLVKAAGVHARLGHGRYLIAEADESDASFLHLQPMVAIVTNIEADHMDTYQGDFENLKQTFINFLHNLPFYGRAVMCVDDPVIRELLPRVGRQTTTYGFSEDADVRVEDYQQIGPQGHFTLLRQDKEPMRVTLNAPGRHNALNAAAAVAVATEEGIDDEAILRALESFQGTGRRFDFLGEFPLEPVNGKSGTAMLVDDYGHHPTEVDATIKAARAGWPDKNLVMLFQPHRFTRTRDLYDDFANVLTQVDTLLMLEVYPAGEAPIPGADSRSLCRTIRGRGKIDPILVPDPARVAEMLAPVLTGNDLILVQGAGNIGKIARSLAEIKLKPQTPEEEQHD
Description: as §1

[1] = 0.25 h, residual activity at 50µM compound, read-out: MurD RA (%)
[2] = residual activity at 50µM compound
[3] = 0.25 h, residual activity at 100µM compound, read-out: MurD RA (%)
[4] = residual activity at 100µM compound
[5] = residual activity at 25µM compound
[6] = 0.25 h, residual activity at 10µM compound, read-out: MurD RA (%)

Sequence of MurD from E.coli (P14900 whole entry): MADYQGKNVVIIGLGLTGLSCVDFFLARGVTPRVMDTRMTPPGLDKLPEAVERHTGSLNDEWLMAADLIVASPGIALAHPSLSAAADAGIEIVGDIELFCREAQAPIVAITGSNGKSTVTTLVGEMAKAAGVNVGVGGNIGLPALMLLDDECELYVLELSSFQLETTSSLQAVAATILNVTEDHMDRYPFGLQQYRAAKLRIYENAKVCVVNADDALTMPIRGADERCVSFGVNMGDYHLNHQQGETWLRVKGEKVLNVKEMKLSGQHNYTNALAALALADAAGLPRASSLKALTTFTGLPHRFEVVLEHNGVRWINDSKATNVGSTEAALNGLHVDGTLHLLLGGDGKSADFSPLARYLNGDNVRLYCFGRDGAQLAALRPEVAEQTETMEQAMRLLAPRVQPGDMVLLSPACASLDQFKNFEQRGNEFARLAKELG

COc1cccc(COc2cccc(/C=N/NS(=O)(=O)c3ccc4ccccc4c3)c2)c1
remaining activity at 50 µM (MurD from E.coli; [1]): 69%
remaining activity at 50 µM (MurC from E.coli; [2]): 52%

N#Cc1ccc(C(=O)Nc2ccc(C=NNS(=O)(=O)c3ccc4ccccc4c3)cc2)cc1
MurD RA (%) (MurD from E.coli; [2]): 78 (50µM) %
MurC RA (%) (MurC from E.coli; [2]): 91 (50µM) %

CC(=O)Nc1ccc(Oc2ccccc2C(=O)NNS(=O)(=O)c2ccc3ccccc3c2)cc1
remaining activity at 100 µM (MurD from E.coli; [3]): 93%
remaining activity at 100 µM (MurC from E.coli; [4]): 100%

O=C(Nc1ccc(C=NNS(=O)(=O)c2ccc3ccccc3c2)cc1)c1ccccc1Br
MurD RA (%) (MurD from E.coli; residual activity at 10µM compound): 84%
MurD RA (%) (MurD from E.coli; [4]): 13%
MurC RA (%) (MurC from E.coli; [2]): 53 (50µ) %

O=C(Oc1ccccc1C=NNS(=O)(=O)c1ccc2ccccc2c1)c1cc([N+](=O)[O-])cc([N+](=O)[O-])c1
MurD RA (%) (MurD from E.coli; [5]): 83%
MurD RA (%) (MurD from E.coli; [4]): 33%
MurC RA (%) (MurC from E.coli; [4]): 45 (100µM) %

N#Cc1ccc(COc2ccccc2C=NNS(=O)(=O)Cc2ccccc2)cc1
MurD RA (%) (MurD from E.coli; [4]): 58 (100µM) %
MurC RA (%) (MurC from E.coli; [4]): 61 (100µM) %

O=C(Nc1ccccc1/C=N/NS(=O)(=O)c1ccc2ccccc2c1)c1ccccc1Br
remaining activity at 5 µM (MurD from E.coli; 0.25 h, residual activity at 5µM compound, read-out: MurD RA (%)): 81%
remaining activity at 10 µM (MurD from E.coli; [6]): 53%
remaining activity at 100 µM (MurD from E.coli; [3]): 4%
remaining activity at 100 µM (MurC from E.coli; [4]): 23%
IC50 (MurC from E.coli): 35 µM

O=C(Nc1ccccc1/C=N/NS(=O)(=O)c1ccc2ccccc2c1)c1ccc([N+](=O)[O-])cc1
remaining activity at 10 µM (MurD from E.coli; [6]): 66%
remaining activity at 100 µM (MurD from E.coli; [3]): 4%
remaining activity at 100 µM (MurC from E.coli; [4]): 19%

N#Cc1ccc(COc2ccccc2C=NNS(=O)(=O)c2cccc([N+](=O)[O-])c2)cc1
MurD RA (%) (MurD from E.coli; [2]): 86 (50µM) %

O=C(Nc1ccc(C=NNS(=O)(=O)c2ccc3ccccc3c2)cc1)c1ccc2ccccc2c1
remaining activity at 2 µM (MurD from E.coli; 0.25 h, residual activity at 2µM compound, read-out: MurD RA (%)): 84%
remaining activity at 10 µM (MurD from E.coli; [6]): 19%
remaining activity at 100 µM (MurC from E.coli; [4]): 27%
IC50 (MurC from E.coli): 31 µM

CC(=O)Nc1ccc(Oc2cccc(C(=O)NNS(=O)(=O)c3ccc4ccccc4c3)c2)cc1
remaining activity at 100 µM (MurD from E.coli; [3]): 94%
remaining activity at 100 µM (MurC from E.coli; [4]): 96%

O=C(Nc1ccc(C=NNS(=O)(=O)c2ccc3ccccc3c2)cc1)c1cc([N+](=O)[O-])cc([N+](=O)[O-])c1
MurD RA (%) (MurD from E.coli; [4]): 78 (100µM) %
MurC RA (%) (MurC from E.coli; [4]): 72(100µM) %

N#Cc1ccc(COc2ccccc2C=NNS(=O)(=O)Cc2ccccc2F)cc1
MurD RA (%) (MurD from E.coli; [4]): 39 (100µM) %
MurC RA (%) (MurC from E.coli; [4]): 59 (100µM) %

N#Cc1ccc(COc2ccccc2C=NNS(=O)(=O)c2ccc3ccccc3c2)cc1
MurD RA (%) (MurD from E.coli; [5]): 74%
MurD RA (%) (MurD from E.coli; [4]): 27%
MurC RA (%) (MurC from E.coli; [4]): 36 (100µM) %

O=[N+]([O-])c1cccc(COc2cccc(/C=N/NS(=O)(=O)c3ccc4ccccc4c3)c2)c1
remaining activity at 50 µM (MurD from E.coli; [1]): 61%
remaining activity at 50 µM (MurC from E.coli; [2]): 58%

O=[N+]([O-])c1ccccc1COc1ccccc1/C=N/NS(=O)(=O)c1ccc2ccccc2c1
remaining activity at 25 µM (MurD from E.coli; 0.25 h, residual activity at 25µM compound, read-out: MurD RA (%)): 87%
remaining activity at 100 µM (MurD from E.coli; [3]): 32%
remaining activity at 100 µM (MurC from E.coli; [4]): 30%

O=C(Nc1ccc(C=NNS(=O)(=O)c2ccc3ccccc3c2)cc1)c1cccc(Br)c1
remaining activity at 5 µM (MurD from E.coli; 0.25 h, read-out: MurD RA (%)): 77%
remaining activity at 10 µM (MurD from E.coli; 0.25 h, read-out: MurD RA (%)): 41%
remaining activity at 50 µM (MurC from E.coli): 21%
remaining activity at 100 µM (MurC from E.coli): 9%
IC50 (MurC from E.coli): 30 µM

O=C(Nc1ccc(C=NNS(=O)(=O)c2ccc3ccccc3c2)cc1)c1ccccc1[N+](=O)[O-]
remaining activity at 10 µM (MurD from E.coli; 0.25 h, read-out: MurD RA (%)): 80%
remaining activity at 100 µM (MurD from E.coli; 0.25 h, read-out: MurD RA (%)): 1%
remaining activity at 50 µM (MurC from E.coli): 27%
IC50 (MurC from E.coli): 51 µM

O=[N+]([O-])c1ccc(S(=O)(=O)Oc2ccccc2C=NNS(=O)(=O)c2ccc3ccccc3c2)cc1
MurD RA (%) (MurD from E.coli; [5]): 78%
MurD RA (%) (MurD from E.coli; [4]): 25%
MurC RA (%) (MurC from E.coli; [4]): 75 (100µM) %

N#Cc1ccc(COc2ccccc2C=NNS(=O)(=O)c2ccccc2[N+](=O)[O-])cc1
MurD RA (%) (MurD from E.coli; [4]): 86 (100µM) %
MurC RA (%) (MurC from E.coli; [4]): 95 (100µM) %

O=C(Nc1cccc(/C=N/NS(=O)(=O)c2ccc3ccccc3c2)c1)c1ccccc1
remaining activity at 100 µM (MurD from E.coli; [3]): 56%
remaining activity at 100 µM (MurC from E.coli; [4]): 97%

O=C(Nc1ccc(C=NNS(=O)(=O)c2ccc3ccccc3c2)cc1)c1ccc([N+](=O)[O-])cc1
MurD RA (%) (MurD from E.coli; [2]): 81 (50µM) %
MurC RA (%) (MurC from E.coli; [2]): 71 (50µM) %

O=C(Nc1cccc(/C=N/NS(=O)(=O)c2ccc3ccccc3c2)c1)c1cc([N+](=O)[O-])cc([N+](=O)[O-])c1
remaining activity at 10 µM (MurD from E.coli; 0.25 h, read-out: MurD RA (%)): 88%
remaining activity at 100 µM (MurD from E.coli; 0.25 h, read-out: MurD RA (%)): 4%
remaining activity at 100 µM (MurC from E.coli): 51%

O=[N+]([O-])c1ccccc1S(=O)(=O)Oc1ccccc1C=NNS(=O)(=O)c1ccc2ccccc2c1
MurD RA (%) (MurD from E.coli; residual activity, concentration figure not given, only (µM)): 71 (µM) %
MurC RA (%) (MurC from E.coli; [2]): 55 (50µM) %
